The source of these data is US20030139609A1, “Aziridinyl quinone antitumor agents based on indoles and cyclopent[b]indoles” (priority 2001, published 2003).

Several values for one entry are separate records, joined by “and”; a condition that tells them apart may be missing. Equal values may be shown once. Read-outs that look alike come from different tables or passages of the source. Bounds are passed on as bounds.

The GI50 is the concentration that inhibits growth by half.

One data set deals with 600 bp calf thymus DNA. Description: DNA reductive alkylation by catalytically reduced aziridinyl quinones. Type of data set: biochemical. To be noted: for DNA alkylation percentage: catalytic reduction, anaerobic, pH 7.4 tris buffer, 30° C., 24 h, absorbance at 550 nm. As for the experimental part: DNA Alkylation Screening of Series 1-9. The extent of DNA reductive alkylation was determined by catalytic reduction of the aziridinyl quinones in the presence of 600 bp calf thymus DNA. Oxidative workup afforded DNA colored blue as a result of the aminoquinone chromophore. […] The anaerobic conditions employed for DNA reductive alkylation assays is not meant to mimic the environment of tumor cells. These conditions do permit an accurate assessment of the structural requirements for DNA alkylation by the hydroquinone species. To be sure, agents incapable of akylating DNA under these ideal conditions will not do so in the typical cellular environment.
Alkylation of DNA by Reduced Indoloquinones. To a mixture of 1-2 mg of sonicated (600 bp) calf thymus DNA in 2.0 mL of 0.05 M of pH 7.4 tris buffer and 2 mg of Pd on carbon was added a five-to-one base pair equivalent amount of the indoloquinone dissolved in 0.5 mL of dimethylsulfoxide. The resulting solution was degassed under argon for 30 min., after which the mixture was purged with H2 for 10 min. The solution was then purged with argon for 10 min. and placed in a 30° C. bath for 24 h. The reaction was opened to the air and the catalyst was removed with a Millex-PF […] syringe filter. The filtrate was adjusted to 0.3 M acetate with a 3 M stock solution of pH 5.1 acetate and then diluted with two volumes of ethanol. The mixture was chilled at −20° C. for 12 h and the DNA pellet collected by centrifuging at 12,000 g for 20 min. The pellet was redissolved in water and then precipitated and centrifuged again. The resulting blue or red pellet was suspended in ethanol, centrifuged, and dried. The dried pellet was weighed and dissolved in 1 mL of double distilled water resulting in a clear colored solution with […]max˜550 nm, □˜750 M^−1 cm^−1. This is the chromophore of the aminoquinone resulting from nucleophile-mediated opening of the aziridine ring. Model 2′-chloroethyl aminoquinones for extinction coefficient determination were prepared by treatment of the indoloquinone with HCl. {Skibo, E. B. and Xing, C., Chemistry and DNA Alkylation Reactions of Aziridinyl Quinones: Development of an Efficient Alkylating Agent of the Phosphate Backbone, Biochemistry, 1998, 37, 15199-15213}.

For the next data set, the system named is B16 melanoma. Nature of the data set: animal or person. Type of data set: in vivo. Particulars: for response vs control in vivo at 2 mg/kg / response vs control in vivo at 3 mg/kg / response vs control in vivo at 5 mg/kg: Mus musculus, B16, 600 h, read-out: In vivo T/C (Treated/Control); for in vivo antitumor activity (in words) / in vivo toxicity (in words): 2, 3 or 5 mg/kg/day. From the text:
Shown in Tables 6 and 7 are B16 melanoma syngraft assays {Griswold, D. P., Consideration of the Subcutaneously Implanted B16 Melanoma as a Screening Model for Potential Anticancer Agents, Cancer Chemother Reports, 1972, 3, 315-324} of some members of Series 1-9, as well as related compounds previously reported from this laboratory. {Xing, C. G., Wu, P., Skibo, E. B., and Dorr, R. T., Design of cancer-specific antitumor agents based on aziridlinylcyclopent[b]indoloquinones, J. Med. Chem., 2000, 43, 457-466}. Each agent was evaluated at three doses in C57/bl mice: 2, 3 or 5 mg/kg/day, on days 1, 5, and 9 after subcutaneous tumor implantation of 10^5 cells in the front flank on day 0. “Toxic” means that there was early lethality, or ≧50% lethality prior to any deaths in the control group. The treated over control values (T/C) were measured at day 25 of the study. A T/C value <40% is considered active.
In vivo Evaluation. The B-16 melanoma in C57/bl mice syngraft model was employed to determine in vivo activity. {Griswold, D. P., Consideration of the Subcutaneously Implanted B16 Melanoma as a Screening Model for Potential Anticancer Agents, Cancer Chemother Reports, 1972, 3, 315-324}. Each agent was evaluated at three doses: 2, 3 or 5 mg/kg/day, on days 1, 5, and 9 after subcutaneous tumor implantation of 10^5 cells in the front flank on day 0. “Toxic” means that there was early lethality, or ≧50% lethality prior to any deaths in the control group. The treated over control values (T/C) were measured at day 25 of the study. A T/C value<40% is considered active. […] The control was obtained with drug-free animals.

Data set [1] has as its system NCI-H460 non-small-lung cancer cell line. Description: NCI In Vitro Cell Line Screening, NSC H460 cell line. The data set is classed as cell-based. To be noted: for GI50 / CC50: Homo sapiens; for Log TGI NSC H460: concentration for total growth inhibition. The text has this: Cytotoxic and Cytostatic Screening of Series 1-9.
The test system of data set [2] is National Cancer Institute 60-cell line. Description: NCI 60-cell line in vitro screen (average cytotoxicity and cancer specificity). Particulars: mean over 60 cell lines; ± value measures cancer specificity. As for the experimental part:
Cytotoxic and Cytostatic Screening of Series 1-9. […] The cytostatic parameters include GI50 and TGI, which are the concentrations of drug required for 50% growth inhibition and total growth inhibition, respectively. The cytotoxic parameter is the LC50, which is the concentration required for 50% cell kill.
4. […] Cancer specificity is measured from the ± value under the “Average Log LC50 60-Cell Line” heading of Table 5. A ± value greater than 2 indicates a greater than 100-fold higher/lower cytotoxicity in some histological cancer types compared to the mean cytotoxicity.
The DT-diaphorase levels in the National Cancer Institute 60-cell line in vitro screen have been determined and correlated with the cytotoxicity of antitumor agents activated by 2-electron reduction. {Fitzsimmons, S. A., Workman, P., Grever, M., Paull, K., Camalier, R., and Lewis, A. D., Reductase Enzyme Expression Across the National Cancer Institute Tumor Cell Line Panel: Correlation with Sensitivity To Mitomycin C and EO9, J. Natl. Cancer Inst., 1996, 88, 259-69}. Sensitive cancers usually include NSC lung and colon cancers (and to a lesser extent CNS, melanoma, and renal cancers) by virtue of their elevated DT-diaphorase levels.

Setting [3] is: 3 mg/Kg/Day on days 1, 5, 9, T/C at day 25, <40% active.
Where [4] appears, read: 5 mg/Kg/Day on days 1, 5, 9, T/C at day 25, <40% active.
The mark [5] stands for this setting: 2 mg/Kg/Day on days 1, 5, 9, T/C at day 25, <40% active.
Where [6] appears, read: NCI-H460, concentration for 50% growth inhibition, read-out: Log GI50 NSC H460 (converted).
Where [7] appears, read: NCI-H460, read-out: Log LC50 NSC H460, concentration for 50% cell kill (converted).
The mark [8] stands for this setting: NCI-H460, read-out: Log GI50 NSC H460 (converted).

Turning to `CC1=C(N2CC2)C(=O)c2[nH]c(CO)c(CO)c2C1=O` [Compound 8a, 6-Aziridinyl-2,3-di(hydroxymethyl)-5-methylindole-4,7-dione], in the data set with 600 bp calf thymus DNA, the DNA alkylation percentage is on record as 4%. In addition, the “In vivo T/C (Treated/Control)” value in the data set with B16 melanoma (setting [3]) and with B16 melanoma (setting [4]) was “Toxic (“Toxic” means ≧ 50% lethality before any control growth deaths)” each time. Moreover, the response vs control in vivo at 2 mg/kg in the data set on B16 melanoma (setting [5]) was 54%.
Regarding `O=C1C(N2CC2)=CC(=O)c2c1[nH]c(CO)c2CO` [Compound 9a, 6-Aziridinyl-2,3-di(hydroxymethyl)indole-4,7-dione], the DNA alkylation percentage with 600 bp calf thymus DNA came to 3.4%. In data set [1] (setting [6]), the GI50 was 138 nM. Also, the CC50 in data set [1] (setting [7]) was 11.7 µM. Also, the “Log TGI NSC H460” value in data set [1] is on record as −5.94. Besides, the “Average Log LC50 60-Cell Line” value in data set [2] is on record as −5.07 ± 1.43.
On to `CC(=O)OCc1[nH]c2c(c1C)C(=O)C(N1CC1)=C(C)C2=O` [reference compound], for which the “In vivo T/C (Treated/Control)” value in the data set with B16 melanoma (setting [3]) and in the data set on B16 melanoma (setting [4]) was “Toxic (“Toxic” means ≧ 50% lethality before any control growth deaths)” in each case. In the data set on B16 melanoma (setting [5]), the response vs control in vivo at 2 mg/kg came out at 47%.
For `CC1=C(N2CC2)C(=O)c2[nH]c(CO)c(C)c2C1=O` [reference compound], in the data set on B16 melanoma, the “in vivo antitumor activity (in words)” value is listed as “antitumor activity is retained” and the “in vivo toxicity (in words)” value is reported as “without much toxicity”. In the data set on B16 melanoma (setting [5]), the response vs control in vivo at 2 mg/kg turned out to be 61%. Also, the response vs control in vivo at 3 mg/kg with B16 melanoma (setting [3]) is 37%. Besides, in the data set on B16 melanoma (setting [4]), the response vs control in vivo at 5 mg/kg was found to be 34%.
For the molecule `CCOC(=O)c1[nH]c2c(c1CO)C(=O)C(N1CC1)=CC2=O` [Compound 6c, 5-Aziridinyl-2-ethylcarboxyl-3-(hydroxymethyl)indole-4,7-dione], the 50% growth inhibitory concentration (GI50) in data set [1] (setting [8]) was 10 nM. Also, the CC50 in data set [1] (setting [7]) was 0.631 µM; in data set [1] (NCI-H460, read-out: −log LC50 value, H460 cell line (converted)) it was 0.631 µM. In addition, the “Log TGI NSC H460” value in data set [1] is −7 and −6.95. Further, the “Average Log LC50 60-Cell Line” value in data set [2] is −5.79 ± 1.98.
Consider `CC(=O)OCc1[nH]c2c(c1C)C(=O)C(C)=C(N1CC1)C2=O` [reference compound], for which the “in vivo antitumor activity (in words)” value with B16 melanoma was “inactive at all doses”.
For `COC1CCc2c1[nH]c1c2C(=O)C(C)=C(N2CC2)C1=O` (stereo not drawn) [reference compound], the “in vivo toxicity (in words)” value in the data set with B16 melanoma is reported as “toxicity only seen at the highest dose”.
With `CC1=C(N2CC2)C(=O)c2c([nH]c(C)c2C)C1=O` [reference compound], the “In vivo T/C (Treated/Control)” value in the data set with B16 melanoma (setting [4]) was “Toxic (“Toxic” means ≧ 50% lethality before any control growth deaths)”. Moreover, the response vs control in vivo at 2 mg/kg in the data set with B16 melanoma (setting [5]) is 10%. Also, the response vs control in vivo at 3 mg/kg with B16 melanoma (setting [3]) stood at 60%.
In the case of `CC1=C(N2CC2)C(=O)c2c([nH]c3c2CCC3O)C1=O` (stereo not drawn) [Compound 2a, 7-Aziridinyl-3-hydroxy-6-methyl-1,2,3,4-tetrahydrocyclopent[b]indole-5,8-dione], the DNA alkylation percentage in the data set with 600 bp calf thymus DNA stood at 11.2%. Moreover, in data set [1] (setting [6]), the GI50 was 10 nM.
In the data set with 600 bp calf thymus DNA, `CC1=C(N2CC2)C(=O)c2[nH]c3c(c2C1=O)CCC3O` (stereo not drawn) [Compound 4a] returned a DNA alkylation percentage of 10%. The GI50 in data set [1] (setting [6]) was 10 nM. Also, the CC50 in data set [1] (setting [7]) is 100 µM. Further, the “Log TGI NSC H460” value in data set [1] is given as −6.97. The “in vivo toxicity (in words)” value in the data set with B16 melanoma was “without any toxicity”. The response vs control in vivo at 2 mg/kg in the data set on B16 melanoma (setting [5]) was found to be 75%. Moreover, the response vs control in vivo at 3 mg/kg in the data set with B16 melanoma (setting [3]) is 45%.
For the molecule `CC(=O)OCc1[nH]c2c(c1COC(C)=O)C(=O)C(N1CC1)=CC2=O` [Compound 6e, 5-Aziridinyl-2,3-di(acetoxymethyl)indole-4,7-dione], in the data set on 600 bp calf thymus DNA, the “DNA alkylation (in words)” value is “high DNA alkylation percentages” and the DNA alkylation percentage is recorded as 43%.
Take `O=C1C=C(N2CC2)C(=O)c2c1[nH]c(CO)c2CO` [Compound 6a, 5-Aziridinyl-2,3-di(hydroxymethyl)indole-4,7-dione]: the DNA alkylation percentage with 600 bp calf thymus DNA is 16.7%. In addition, the “In vivo T/C (Treated/Control)” value with B16 melanoma (setting [5]), in the data set on B16 melanoma (setting [3]) and in the data set with B16 melanoma (setting [4]) was “Toxic (“Toxic” means ≧ 50% lethality before any control growth deaths)” throughout.
Consider `CC(=O)OC1CCc2c3c(n(C(C)=O)c21)C(=O)C(N1CC1)=CC3=O` (stereo not drawn) [Compound 3c, 6-Aziridinyl-3-acetoxy-4-acetyl-1,2,3,4-tetrahydrocyclopent[b]indole-5,8-dione], for which, in the data set on B16 melanoma, the “in vivo toxicity (in words)” value was “toxic”, the response vs control in vivo at 2 mg/kg was more than 50%, the response vs control in vivo at 3 mg/kg was more than 50% and the response vs control in vivo at 5 mg/kg is more than 50%.
As for `CC1=C(N2CC2)C(=O)c2[nH]c(C)c(C)c2C1=O` [reference compound], in the data set on B16 melanoma, the response vs control in vivo at 2 mg/kg was determined as 22%, the response vs control in vivo at 3 mg/kg was more than 50% and the response vs control in vivo at 5 mg/kg is more than 50%.
The molecule `CC(=O)OC1CCc2c1[nH]c1c2C(=O)C=C(N2CC2)C1=O` (stereo not drawn) [Compound 3b, 3-Acetoxy-6-aziridinyl-1,2,3,4-tetrahydrocyclopent[b]indole-5,8-dione] returned a DNA alkylation percentage in the data set with 600 bp calf thymus DNA of 29%. The “In vivo T/C (Treated/Control)” value in the data set on B16 melanoma (setting [4]) is recorded as “Toxic (“Toxic” means ≧ 50% lethality before any control growth deaths)”.
As for `CCOC(=O)c1[nH]c2c(c1CO)C(=O)C(N1CC1)=C(C)C2=O` [Compound 7b, 5-Aziridinyl-2-ethylcarboxyl-3-hydroxymethyl-6-methylindole-4,7-dione], the GI50 in data set [1] (setting [8]) is 10 nM. Also, the “Log TGI NSC H460” value in data set [1] was −7.99 and −7.96. In addition, in data set [2], the “Average Log LC50 60-Cell Line” value is −5.69 ± 2.31 and −5.75 ± 2.25.
